From ChEMBL document CHEMBL1201862, “PubChem BioAssay data set” (2004)
Where a name gives a salt, the structure may show the parent alone. Active and inactive are the calls of the source.

Tests used:
[1] = target: Dual specificity protein kinase CLK1 (Homo sapiens, UniProt P49759); test: CLK1 kinase inhibitors, off-target check, dose response, selectivity assay for Dyrk1A inhibitor project, biochemical, cherry-picked samples (AID 588811)
[2] = target: Dual specificity protein phosphatase 6 (Rattus norvegicus, UniProt Q64346); assay type: functional;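 also: confirmatory in vitro dose-response testing of MKP-3 inhibition; recombinant His-tagged MKP-3 made in E. coli BL21 with OMFP substrate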
[3] = target: Tyrosine-protein phosphatase non-receptor type 7 (Homo sapiens, UniProt P35236); test: redox-dependent HePTP inhibition, mechanism study, biochemical, fluorescence (AID 2068); assay type: functional
Trypsin = Trypsin (Sus scrofa, UniProt P00761); test: porcine trypsin inhibitors, dose response, selectivity assay for Rce1 protease inhibitor project, biochemical, quenched peptide fluorescence, cherry-pick (AID 488789)
CAAX prenyl protease 2 [4] = target: CAAX prenyl protease 2 (Saccharomyces cerevisiae S288c, UniProt Q03530); assay type: biochemical
CAAX prenyl protease 2 [5] = target: CAAX prenyl protease 2 (Homo sapiens, UniProt Q9Y256); test: human Rce1 protease inhibitors, dose response, biochemical, yeast membranes, quenched-peptide fluorescence, cherry-pick (AID 588849)
HEK293 [6] = test: cells; assay type: functional, cell-based; settings: Homo sapiens
HEK293 [7] = test: cells; assay type: functional, cell-based; settings: Homo sapiens; remark: listed apart in the source
[8] = target: Nucleotide-binding oligomerization domain-containing protein 2 (Homo sapiens, UniProt Q9HC29); test: NOD2 signaling inhibitors, cell-based, luminescence, uHTS, HEK293 (AID 1566); assay type: functional
HEK293 [9] = test: NOD2 signaling inhibitors in MDP-stimulated cells, cell-based, uHTS, luminescence (AID 2001); assay type: functional; settings: Homo sapiens
HEK293 [10] = test: cells; assay type: functional, cell-based; settings: Homo sapiens; remark: listed apart in the source
[11] = target: T1, Microphthalmia-associated transcription factor (Homo sapiens, UniProt O75030); test: TRPM1 promoter luciferase signal decrease, dose response, MITF inhibitor project, cell-based, SK-MEL-5, cherry-picked, set 3 (AID 493073); assay type: functional
T1 sequence (O75030 whole entry): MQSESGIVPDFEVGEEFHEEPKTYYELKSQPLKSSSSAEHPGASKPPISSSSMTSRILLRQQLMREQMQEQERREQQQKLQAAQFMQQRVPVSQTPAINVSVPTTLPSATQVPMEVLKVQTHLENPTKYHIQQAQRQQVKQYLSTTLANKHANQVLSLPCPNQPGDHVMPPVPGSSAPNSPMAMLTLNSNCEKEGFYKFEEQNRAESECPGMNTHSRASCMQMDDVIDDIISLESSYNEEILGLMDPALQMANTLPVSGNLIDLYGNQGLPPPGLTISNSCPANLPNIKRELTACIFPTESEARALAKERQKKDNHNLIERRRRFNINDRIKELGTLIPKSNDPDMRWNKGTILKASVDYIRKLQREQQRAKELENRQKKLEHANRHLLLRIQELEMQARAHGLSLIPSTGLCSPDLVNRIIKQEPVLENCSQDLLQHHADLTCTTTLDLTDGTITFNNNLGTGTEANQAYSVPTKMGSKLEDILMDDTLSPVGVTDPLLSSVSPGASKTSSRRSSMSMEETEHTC

HEK293 [12] = test: NOD1 signaling inhibitors, primary screen, cell-based, luminescence, uHTS (AID 1578); assay type: functional; settings: Homo sapiens
[13] = target: T2, Heat shock factor protein 1 (Mus musculus, UniProt P38532); test: inhibition of MG132-induced HSE-luciferase signal, confirmation, cell-based, NIH3T3, luminescence, dose retest (AID 2382); assay type: functional;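 also: NIH3T3 fibroblasts with HSF1-driven luciferase reporter stressed by proteasome inhibitor MG132; luminescence from HSF1-driven luciferase expression after 8 hours of MG132 stress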
T2 sequence (P38532 whole entry): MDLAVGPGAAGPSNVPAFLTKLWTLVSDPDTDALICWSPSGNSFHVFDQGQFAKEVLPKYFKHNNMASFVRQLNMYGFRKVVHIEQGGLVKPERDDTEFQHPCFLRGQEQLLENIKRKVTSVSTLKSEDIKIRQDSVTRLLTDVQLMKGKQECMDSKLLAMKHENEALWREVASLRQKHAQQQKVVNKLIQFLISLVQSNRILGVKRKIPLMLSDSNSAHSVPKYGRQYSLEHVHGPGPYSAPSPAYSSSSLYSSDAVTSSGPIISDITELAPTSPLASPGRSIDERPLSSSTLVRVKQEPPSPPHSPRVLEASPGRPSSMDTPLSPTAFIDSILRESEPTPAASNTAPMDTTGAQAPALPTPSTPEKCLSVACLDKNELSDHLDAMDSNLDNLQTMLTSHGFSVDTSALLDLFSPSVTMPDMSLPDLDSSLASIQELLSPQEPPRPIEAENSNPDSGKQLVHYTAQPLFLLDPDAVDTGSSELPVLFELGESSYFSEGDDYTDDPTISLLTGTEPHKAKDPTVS

[14] = target: T3, Corticotropin-releasing factor receptor 2/Corticotropin-releasing factor-binding protein (Homo sapiens, UniProt P24387+Q13324); test: Dose Response confirmation of uHTS hits for small molecule antagonists of the CRF-binding protein and CRF-R2 receptor complex.; assay type: functional; settings: read-out: IC50_Mean
T3 sequence (Q13324 whole entry): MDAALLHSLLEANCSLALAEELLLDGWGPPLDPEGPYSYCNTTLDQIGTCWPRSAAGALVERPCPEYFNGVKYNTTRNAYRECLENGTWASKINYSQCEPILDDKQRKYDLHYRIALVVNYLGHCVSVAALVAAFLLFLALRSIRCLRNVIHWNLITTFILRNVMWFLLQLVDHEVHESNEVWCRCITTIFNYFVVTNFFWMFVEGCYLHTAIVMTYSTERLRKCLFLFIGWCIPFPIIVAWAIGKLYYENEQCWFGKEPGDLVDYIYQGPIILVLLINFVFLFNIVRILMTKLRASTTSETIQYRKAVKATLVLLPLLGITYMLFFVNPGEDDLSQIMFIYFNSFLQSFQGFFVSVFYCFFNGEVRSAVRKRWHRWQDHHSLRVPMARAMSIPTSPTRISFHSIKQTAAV
T3 sequence (P24387 whole entry): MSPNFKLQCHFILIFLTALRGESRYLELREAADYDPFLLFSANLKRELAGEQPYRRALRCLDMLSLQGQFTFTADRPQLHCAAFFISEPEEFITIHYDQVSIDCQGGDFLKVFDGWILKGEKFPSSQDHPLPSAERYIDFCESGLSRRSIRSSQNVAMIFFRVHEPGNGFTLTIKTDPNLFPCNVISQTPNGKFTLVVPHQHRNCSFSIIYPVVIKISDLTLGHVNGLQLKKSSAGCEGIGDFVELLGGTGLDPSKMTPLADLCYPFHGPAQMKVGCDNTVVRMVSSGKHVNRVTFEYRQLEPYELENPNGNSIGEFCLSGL

[15] = target: T3, Corticotropin-releasing factor receptor 2/Corticotropin-releasing factor-binding protein; test: activators of CRF receptor 2 with binding protein – uHTS hits, confirmation (AID 602473); assay type: functional; settings: read-out: EC50_Mean
[16] = target: Voltage-gated inwardly rectifying potassium channel KCNH2 (Homo sapiens, UniProt Q12809); settings: Potency;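 also: confirmatory quantitative high-throughput screen measuring inhibition of hERG channel activity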
[17] = target: FAD-linked sulfhydryl oxidase ALR (Homo sapiens, UniProt P55789); test: inhibitors of human ALR sulfhydryl oxidase, dose response, biochemical, H2O2 detection, luminescence, cherry-pick (AID 493248)
[18] = growth induction of Burl-1 ts yeast mutant, dose response, counter-screen for SUMOylation pathway inhibitor project, whole organism, S. cerevisiae, luminescence (AID 463199); assay type: functional
[19] = target: UDP-galactopyranose mutase (Mycobacterium tuberculosis, UniProt P9WIQ1); test: Inhibitors of Mycobacterium tuberculosis UDP-galactopyranose mutase (UGM) enzyme Measured in Biochemical System Using Plate Reader - 2105-02_Inhibitor_Dose_CherryPick_Activity. [Related pubchem assays (depositor defined):AID504439]
[20] = target: T4, Serine/threonine-protein phosphatase (Candida dubliniensis (strain CD36 / CBS 7987 / NCPF 3949 / NRRLY-17841) (Yeast), UniProt B9W6M3); test: Fluorescence Cell-Based Secondary Assay to Identify Inhibitors of Calcineurin. [Related pubchem assays (depositor defined):AID1979, AID2007]; assay type: functional
T4 sequence (B9W6M3 whole entry): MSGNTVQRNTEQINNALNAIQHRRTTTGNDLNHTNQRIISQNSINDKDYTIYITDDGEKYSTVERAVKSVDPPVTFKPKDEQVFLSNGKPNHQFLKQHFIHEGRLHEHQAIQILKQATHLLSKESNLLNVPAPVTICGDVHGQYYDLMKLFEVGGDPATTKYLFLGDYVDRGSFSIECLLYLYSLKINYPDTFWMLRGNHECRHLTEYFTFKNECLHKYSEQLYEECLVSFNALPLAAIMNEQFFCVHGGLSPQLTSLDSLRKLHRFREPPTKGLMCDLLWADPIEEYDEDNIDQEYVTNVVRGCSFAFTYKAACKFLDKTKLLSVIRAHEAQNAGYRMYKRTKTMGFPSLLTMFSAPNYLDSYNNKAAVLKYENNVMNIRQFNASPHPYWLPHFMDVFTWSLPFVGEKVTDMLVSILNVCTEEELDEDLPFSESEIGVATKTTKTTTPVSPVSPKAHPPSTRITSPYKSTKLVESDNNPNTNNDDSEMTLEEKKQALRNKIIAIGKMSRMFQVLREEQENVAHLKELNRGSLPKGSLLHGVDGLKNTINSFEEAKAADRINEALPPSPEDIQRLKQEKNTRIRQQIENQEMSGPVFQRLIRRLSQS

[21] = C. albicans growth with fluconazole, confirmation, fluorescence, retest (AID 2467); assay type: functional, cell-based
[22] = NIH-3T3 fibroblast cytotoxicity, dose response, cytotoxicity control, cell-based, fluorescence, Alamar Blue, secondary assay (AID 2327); assay type: functional;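 also: NIH-3T3 mouse fibroblasts cultured with fluconazole at 8 µg/mL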
A-375 = test: MITF: Counter assay: A375 proliferation Measured in Cell-Based System Using Plate Reader - 2084-03_Inhibitor_Dose_DryPowder_Activity. [Related pubchem assays (depositor defined):AID488944]; assay type: functional; settings: Homo sapiens
[23] = growth suppression of PTEN-null colon cells, dose response, cell-based, HCT116 PTEN knockout (AID 1047); assay type: functional;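 also: HCT116 colon tumor cells with PTEN knocked out; cells exposed to compound for 60 hours before readout; potency for loss of cell viability measured by luminescence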
[24] = growth suppression of beta-catenin-knockout colon cells, dose response, cell-based, HCT116, human colon tumor (AID 1045); assay type: functional;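 also: HCT116 colon tumor cells with beta catenin knocked out; cells exposed to compound for 60 hours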
HEK293 [25] = test: cells; assay type: functional, cell-based; settings: Homo sapiens; remark: listed apart in the source
[26] = target: Nuclear receptor subfamily 0 group B member 1 (Homo sapiens, UniProt P51843); test: Luminescence-based cell-based high throughput dose response assay for inhibitors of the orphan nuclear receptor subfamily 0, group B, member 1 (DAX1; NR0B1). [Related pubchem assays (depositor defined):AID504766, AID504790]; assay type: functional
Genome polyprotein = Genome polyprotein (dengue virus type 2, UniProt P29990); test: Dengue-2 NS5 methyltransferase inhibitors, primary screen, biochemical, confirmation dose response (AID 588689); assay type: functional
Vero = Vero cell cytotoxicity, cytotoxicity control for flavivirus capping enzyme inhibitors (AID 588742); assay type: functional; settings: Chlorocebus sabaeus
[27] = target: Glucose-6-phosphate 1-dehydrogenase (Homo sapiens, UniProt P11413); test: human G6PD enzyme inhibitors, dose response, selectivity assay for P. falciparum G6PD inhibitor project, biochemical, fluorescence (AID 504792); assay type: functional
[28] = target: T5, Mannose-6-phosphate isomerase (Homo sapiens, UniProt P34949); test: PMI enzyme inhibitors, confirmation, biochemical, fluorescence intensity (AID 1535)
T5 sequence (P34949 whole entry): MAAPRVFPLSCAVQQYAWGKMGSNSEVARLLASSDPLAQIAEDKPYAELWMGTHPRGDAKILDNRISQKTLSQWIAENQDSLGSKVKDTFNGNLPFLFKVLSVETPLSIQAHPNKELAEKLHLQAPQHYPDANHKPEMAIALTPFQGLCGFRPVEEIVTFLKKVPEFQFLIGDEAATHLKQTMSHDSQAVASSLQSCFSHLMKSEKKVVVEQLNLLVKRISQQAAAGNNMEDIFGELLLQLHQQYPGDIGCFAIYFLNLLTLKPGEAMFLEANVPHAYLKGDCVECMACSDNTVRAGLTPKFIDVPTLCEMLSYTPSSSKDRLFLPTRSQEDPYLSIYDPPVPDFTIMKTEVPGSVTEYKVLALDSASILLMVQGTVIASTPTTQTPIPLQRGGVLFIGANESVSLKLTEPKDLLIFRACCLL

Sequence of FAD-linked sulfhydryl oxidase ALR (P55789 whole entry): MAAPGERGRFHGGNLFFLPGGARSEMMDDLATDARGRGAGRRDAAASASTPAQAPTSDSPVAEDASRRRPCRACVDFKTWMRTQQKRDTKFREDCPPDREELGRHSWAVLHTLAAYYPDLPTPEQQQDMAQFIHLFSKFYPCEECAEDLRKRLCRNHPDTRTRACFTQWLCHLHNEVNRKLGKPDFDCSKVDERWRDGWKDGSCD
Sequence of Nuclear receptor subfamily 0 group B member 1 (P51843 whole entry): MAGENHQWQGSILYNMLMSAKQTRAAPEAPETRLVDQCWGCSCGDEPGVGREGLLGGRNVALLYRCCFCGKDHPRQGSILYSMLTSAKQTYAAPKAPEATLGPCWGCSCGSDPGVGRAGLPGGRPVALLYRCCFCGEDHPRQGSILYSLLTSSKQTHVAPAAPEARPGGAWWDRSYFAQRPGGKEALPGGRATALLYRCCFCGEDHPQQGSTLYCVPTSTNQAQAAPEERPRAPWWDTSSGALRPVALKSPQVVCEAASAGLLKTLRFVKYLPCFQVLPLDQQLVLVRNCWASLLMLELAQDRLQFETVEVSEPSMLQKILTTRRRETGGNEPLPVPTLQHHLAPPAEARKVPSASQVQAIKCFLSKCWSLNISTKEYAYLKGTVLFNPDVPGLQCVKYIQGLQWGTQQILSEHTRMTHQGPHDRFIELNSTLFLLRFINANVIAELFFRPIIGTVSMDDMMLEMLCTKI
Sequence of Dual specificity protein kinase CLK1 (P49759 whole entry): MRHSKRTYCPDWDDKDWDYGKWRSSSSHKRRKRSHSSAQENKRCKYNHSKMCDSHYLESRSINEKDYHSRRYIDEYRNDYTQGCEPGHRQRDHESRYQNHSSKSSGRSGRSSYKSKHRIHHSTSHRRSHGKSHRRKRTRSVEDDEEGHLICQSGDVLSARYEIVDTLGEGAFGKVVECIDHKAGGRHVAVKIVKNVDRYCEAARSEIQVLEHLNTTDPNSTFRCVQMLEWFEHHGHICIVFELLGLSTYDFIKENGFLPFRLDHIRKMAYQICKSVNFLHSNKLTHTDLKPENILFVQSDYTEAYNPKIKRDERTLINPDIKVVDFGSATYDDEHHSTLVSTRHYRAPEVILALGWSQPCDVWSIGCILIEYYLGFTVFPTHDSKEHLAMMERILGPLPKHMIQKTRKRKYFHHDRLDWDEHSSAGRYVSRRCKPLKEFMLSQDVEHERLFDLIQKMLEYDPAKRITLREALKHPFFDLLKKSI
Sequence of Dual specificity protein phosphatase 6 (Q64346 whole entry): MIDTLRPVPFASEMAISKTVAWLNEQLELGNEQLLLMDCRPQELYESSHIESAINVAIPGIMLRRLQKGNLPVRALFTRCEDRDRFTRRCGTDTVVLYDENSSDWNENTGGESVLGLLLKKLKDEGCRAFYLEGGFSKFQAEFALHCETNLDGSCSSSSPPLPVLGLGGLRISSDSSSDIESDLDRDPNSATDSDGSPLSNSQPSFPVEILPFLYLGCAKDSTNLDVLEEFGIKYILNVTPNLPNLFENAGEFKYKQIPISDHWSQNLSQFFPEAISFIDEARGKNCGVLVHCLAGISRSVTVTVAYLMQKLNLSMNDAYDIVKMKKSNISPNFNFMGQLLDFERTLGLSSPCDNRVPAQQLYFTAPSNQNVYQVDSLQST
Sequence of Genome polyprotein (P29990 2492-3391 limits assumed): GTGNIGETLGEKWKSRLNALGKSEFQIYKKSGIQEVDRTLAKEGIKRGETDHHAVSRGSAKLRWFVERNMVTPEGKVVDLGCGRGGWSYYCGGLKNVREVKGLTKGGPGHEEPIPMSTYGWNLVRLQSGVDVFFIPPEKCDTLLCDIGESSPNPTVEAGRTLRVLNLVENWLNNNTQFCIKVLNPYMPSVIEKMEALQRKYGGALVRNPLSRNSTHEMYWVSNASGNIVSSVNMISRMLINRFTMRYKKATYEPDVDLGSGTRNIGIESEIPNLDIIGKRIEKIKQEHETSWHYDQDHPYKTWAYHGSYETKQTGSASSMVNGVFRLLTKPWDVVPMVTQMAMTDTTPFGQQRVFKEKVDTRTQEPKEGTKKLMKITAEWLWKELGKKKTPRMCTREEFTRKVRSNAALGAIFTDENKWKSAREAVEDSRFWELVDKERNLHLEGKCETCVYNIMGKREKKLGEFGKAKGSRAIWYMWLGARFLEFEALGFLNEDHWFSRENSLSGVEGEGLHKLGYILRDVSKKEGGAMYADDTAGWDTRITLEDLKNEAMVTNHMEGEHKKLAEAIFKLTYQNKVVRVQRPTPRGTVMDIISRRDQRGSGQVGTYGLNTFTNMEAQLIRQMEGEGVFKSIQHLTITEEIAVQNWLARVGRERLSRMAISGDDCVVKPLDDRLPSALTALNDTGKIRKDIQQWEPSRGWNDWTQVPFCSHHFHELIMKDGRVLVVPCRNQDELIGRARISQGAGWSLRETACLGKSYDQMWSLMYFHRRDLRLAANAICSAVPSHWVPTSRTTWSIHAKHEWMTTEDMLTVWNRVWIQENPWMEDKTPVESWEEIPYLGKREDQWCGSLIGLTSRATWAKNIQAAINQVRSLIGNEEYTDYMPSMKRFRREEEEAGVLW
Sequence of UDP-galactopyranose mutase (P9WIQ1 whole entry): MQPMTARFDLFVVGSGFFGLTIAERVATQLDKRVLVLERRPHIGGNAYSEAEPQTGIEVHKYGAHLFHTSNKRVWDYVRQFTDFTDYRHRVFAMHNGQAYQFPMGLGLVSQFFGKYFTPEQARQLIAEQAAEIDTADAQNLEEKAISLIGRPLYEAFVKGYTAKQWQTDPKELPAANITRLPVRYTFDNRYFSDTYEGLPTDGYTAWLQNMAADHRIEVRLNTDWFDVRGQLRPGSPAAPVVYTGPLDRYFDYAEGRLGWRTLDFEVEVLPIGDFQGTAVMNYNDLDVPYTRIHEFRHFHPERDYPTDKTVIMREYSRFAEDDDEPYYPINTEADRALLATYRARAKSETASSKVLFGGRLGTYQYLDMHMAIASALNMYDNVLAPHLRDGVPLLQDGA
Sequence of CAAX prenyl protease 2 (Saccharomyces cerevisiae S288c, UniProt Q03530) (Q03530 whole entry): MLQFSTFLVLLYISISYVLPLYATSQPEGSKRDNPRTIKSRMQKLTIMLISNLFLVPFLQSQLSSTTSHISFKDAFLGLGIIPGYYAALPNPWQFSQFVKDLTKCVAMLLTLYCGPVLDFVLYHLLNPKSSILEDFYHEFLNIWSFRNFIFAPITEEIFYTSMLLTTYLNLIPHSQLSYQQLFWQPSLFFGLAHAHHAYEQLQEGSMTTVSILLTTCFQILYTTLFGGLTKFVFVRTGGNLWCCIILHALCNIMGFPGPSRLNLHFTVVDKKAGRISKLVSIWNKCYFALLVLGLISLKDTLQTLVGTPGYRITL
Sequence of Trypsin (P00761 whole entry): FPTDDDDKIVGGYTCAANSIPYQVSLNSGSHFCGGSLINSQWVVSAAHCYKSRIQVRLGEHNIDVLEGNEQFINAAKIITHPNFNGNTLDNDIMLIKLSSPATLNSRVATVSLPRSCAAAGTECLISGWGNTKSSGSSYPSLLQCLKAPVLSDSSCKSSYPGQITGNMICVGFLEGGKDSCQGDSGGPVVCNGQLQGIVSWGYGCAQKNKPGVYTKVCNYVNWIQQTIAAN
Sequence of Glucose-6-phosphate 1-dehydrogenase (P11413 whole entry): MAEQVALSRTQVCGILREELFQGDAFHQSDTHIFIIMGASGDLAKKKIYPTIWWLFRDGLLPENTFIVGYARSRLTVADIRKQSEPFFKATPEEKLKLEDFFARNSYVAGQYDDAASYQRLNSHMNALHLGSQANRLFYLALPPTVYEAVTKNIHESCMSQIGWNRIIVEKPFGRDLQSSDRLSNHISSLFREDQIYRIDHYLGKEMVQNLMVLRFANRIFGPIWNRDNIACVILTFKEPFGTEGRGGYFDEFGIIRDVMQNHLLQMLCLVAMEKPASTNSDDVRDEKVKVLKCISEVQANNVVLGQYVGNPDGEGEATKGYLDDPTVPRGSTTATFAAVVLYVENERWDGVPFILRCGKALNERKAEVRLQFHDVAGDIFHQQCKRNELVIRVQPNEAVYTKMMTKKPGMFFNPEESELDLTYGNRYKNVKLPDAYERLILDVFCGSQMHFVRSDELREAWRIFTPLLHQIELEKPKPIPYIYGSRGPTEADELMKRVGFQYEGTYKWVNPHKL
Sequence of Tyrosine-protein phosphatase non-receptor type 7 (P35236 whole entry): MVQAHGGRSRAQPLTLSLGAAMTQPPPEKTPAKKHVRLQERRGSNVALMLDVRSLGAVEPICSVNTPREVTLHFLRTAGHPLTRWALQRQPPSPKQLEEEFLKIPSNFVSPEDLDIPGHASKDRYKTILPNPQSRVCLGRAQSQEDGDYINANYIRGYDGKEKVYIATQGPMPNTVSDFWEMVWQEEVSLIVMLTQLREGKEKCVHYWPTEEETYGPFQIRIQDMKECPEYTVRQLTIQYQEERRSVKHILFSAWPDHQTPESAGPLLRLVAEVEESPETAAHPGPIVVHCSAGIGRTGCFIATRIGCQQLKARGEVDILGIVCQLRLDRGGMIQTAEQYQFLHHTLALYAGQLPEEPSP
Sequence of CAAX prenyl protease 2 (Homo sapiens, UniProt Q9Y256) (Q9Y256 whole entry): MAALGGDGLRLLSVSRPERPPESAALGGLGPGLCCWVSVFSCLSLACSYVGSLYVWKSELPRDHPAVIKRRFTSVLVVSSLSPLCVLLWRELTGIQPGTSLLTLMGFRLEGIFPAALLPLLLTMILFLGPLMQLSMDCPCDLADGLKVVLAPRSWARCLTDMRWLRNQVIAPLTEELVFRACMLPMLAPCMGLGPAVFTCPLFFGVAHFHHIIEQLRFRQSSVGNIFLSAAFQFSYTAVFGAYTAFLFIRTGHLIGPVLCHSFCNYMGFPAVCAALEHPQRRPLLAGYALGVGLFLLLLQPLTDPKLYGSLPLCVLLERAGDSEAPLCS

CCN(Cc1cccs1)c1ncnc2ccc(-c3ccc4c(c3)OCO4)cc12
AC50 [1]: < 0.00195 µM (active)

CCN(CC)C(=S)c1ccc(O)c(OC)c1
IC50 [2]: > 100 µM (inactive)
IC50 [3]: 4.42 µM (active)

COC(=O)C1=CNC=C(C(=O)OC)C1c1cccc2ccccc12
AC50 (Trypsin): 80.3 µM (active)
AC50 (CAAX prenyl protease 2 [4]): 26.9 µM (active)
AC50 (CAAX prenyl protease 2 [5]): 7.98 µM (active)

O=C(CCl)Nc1ccc(Sc2ccc(NC(=O)CCl)cc2)cc1
IC50 (HEK293 [6]): 10.2 µM (active)
IC50 (HEK293 [7]): > 20 µM (inactive)
EC50 [8]: 18.8 µM (active)
IC50 (HEK293 [9]): 2.71 µM (active)
IC50 (HEK293 [10]): 1.62 µM (active)
AC50 [11]: 5.98 µM (active)
EC50 (HEK293 [12]): 10.1 µM (active)
EC50 [13]: 3.68 µM (active)

c1ccc(C2CN3CCSC3=N2)cc1 (configuration not stated) [TETRAMISOLE HYDROCHLORIDE]
IC50 [14]: > 47.1 µM (inactive)
EC50 [15]: > 53 µM (inactive)
AC50 [16]: 35.5 µM (inconclusive)

O=C(O)CCc1ccc(-c2cccs2)n1NC(=O)c1cccs1
AC50 [17]: 1.55 µM (active)
AC50 [18]: 183 µM (active)

O=C(NCC1CCCO1)c1cccc2c1C(=O)c1ccc(N3CCC(Cc4ccccc4)CC3)cc1S2(=O)=O (configuration not stated)
AC50 [19]: 52.6 µM (active)

O=C1/C(=C\c2ccccc2)CCc2c1[nH]c1ccccc21
EC50 [20]: > 285 µM (inactive)

CCOc1cc(/C=N/N=C(N)N)ccc1OCc1ccc(Cl)cc1
EC50 [21]: > 38 µM (not active)
EC50 [22]: 81.2 µM (active)
AC50 (A-375): 18 µM (active)
EC50 [23]: 3.92 µM (active)
EC50 [24]: 3.01 µM (active)

FC(F)(F)c1nnc2ccc(NCc3cccnc3)nn12
IC50 (HEK293 [25]): 50.4 µM (inactive)
IC50 [26]: > 67.5 µM (inactive)

COc1cc(CN2CCCC(C(=O)c3ccc4c5c(cccc35)CC4)C2)cc(OC)c1O (configuration not stated)
IC50 (Genome polyprotein): 97.7 µM (active)
CC50 (Vero): > 40 µM (active)
IC50 [27]: 24.3 µM (inactive)

O=c1c2cc(F)ccc2sn1-c1ccccc1F
IC50 [28]: 5.3 µM (active)
